From patent publication US20260199365A1, “BIS-SULFONAMIDE SHIP1 ACTIVATORS” (The Research Foundation for the State University of New York, priority 2022, published 2026)

Key:
[1] = Solubility of the isolated solid in common solvents; assay type: physicochemical; conditions: DMSO, acetone, methanol, chloroform, and water
From the text: While most of the analogs in Table 1 were easy to handle, attempts to isolate the thiomorpholine sulfone 23 were problematic. During the final sulfonamide formation to access 23 an insoluble solid was formed and filtered from the reaction mixture. […] A combustion analysis did match the formula for the desired product, however given the insolubility of this substance it was not evaluated further.

[2] = molecular target: T1, recombinant human truncated SHIP1 (tSHIP1) (Homo sapiens, UniProt Q92835); assay: Malachite Green Phosphatase Release Assay (SHIP1 phosphatase activity); assay type: biochemical; conditions: for Phosphatase activity in the Malachite Green Assay, analog concentration 125 μM: 125 μM analog; for Phosphatase activity in the Malachite Green Assay, analog concentration 125 μM / Phosphatase activity in the Malachite Green Assay, analog concentration 250 μM / Phosphatase activity in the Malachite Green Assay, analog concentration 500 μM: 100 μM PI(3,4,5)P3-diC8 substrate, normalized to vehicle control (DMSO) = 100%; for Phosphatase activity in the Malachite Green Assay, analog concentration 250 μM: 250 μM analog; for Phosphatase activity in the Malachite Green Assay, analog concentration 500 μM: 500 μM analog, >100% activation, <100% inhibition; for SHIP1 activator activity in the malachite green assay: discussion of Table 4 (125-500 μM); for Malachite (SHIP1), 125 μM / Malachite (SHIP1), 250 μM / Malachite (SHIP1), 500 μM: bis-sulfonamide hybrids
T1 construct: tSHIP1 (SHIP1, residues 397-864) was amplified from pET24TEV-tSHIP1; His tag; made in house; host or cells: E. coli BL21
T1 sequence (Q92835 397-864): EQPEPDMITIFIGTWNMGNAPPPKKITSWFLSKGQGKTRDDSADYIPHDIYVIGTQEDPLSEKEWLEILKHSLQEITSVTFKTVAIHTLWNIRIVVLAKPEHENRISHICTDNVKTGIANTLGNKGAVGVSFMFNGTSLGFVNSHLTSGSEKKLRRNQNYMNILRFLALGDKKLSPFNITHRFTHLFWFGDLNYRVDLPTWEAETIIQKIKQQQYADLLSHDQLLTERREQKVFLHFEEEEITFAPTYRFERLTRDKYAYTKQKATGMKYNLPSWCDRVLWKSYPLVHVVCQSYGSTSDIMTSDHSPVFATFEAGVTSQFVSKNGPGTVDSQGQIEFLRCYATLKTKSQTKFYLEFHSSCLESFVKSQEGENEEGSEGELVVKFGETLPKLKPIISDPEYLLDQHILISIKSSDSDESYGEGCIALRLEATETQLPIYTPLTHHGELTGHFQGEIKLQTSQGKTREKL
Procedure: ^aPhosphatase activity for SHIP1 and SHIP2 enzyme as determined in the malachite green assay. Results were normalized to the phosphatase activity level from vehicle control (DMSO) used as 100% activity. Values >100% are attributed to activation, while values <100% show inhibition of the enzyme compared to the control. The assay was performed at the indicated concentration of the small molecule with 100 μM PI(3,4,5)P3-diC8 as the substrate. ^bnd=not determined, compound 23 was insoluble.
Cloning and expression of tSHIP1 of truncated human SHIP1 protein (tSHIP1) from human whole blood mRNA have been previously described (see Brooks R, Iyer, S., Akada, H., Neelam, S., Russo, C. M., Chisholm, J. D., and Kerr W. G. Coordinate Expansion of Murine Hematopoietic and Mesenchymal Stem Cell Compartments by SHIPi Stem Cells 2015; 33:848). Briefly, tSHIP1 (SHIP1, residues 397-864) was amplified from pET24TEV-tSHIP1. Plasmids were extracted with Midi Prep (Qiagen) and sequences were verified by sequencing of the entire expression regions. The plasmids were then transformed into E. coli BL21 (New England Biolabs). Fresh colonies were amplified in 1 L LB at 37° C., shaking at 250 rpm until OD600 nm reached 0.6. Protein expression was induced with […] IPTG and incubation was continued at 16° C., shaking at 250 rpm for 16 h. Following centrifugation, bacteria pellets were stored overnight at −20° C. Protein was extracted form bacterial cell pellet using BugBuster HT (Millipore), according to manufacturer's recommendations. The His-tagged protein was purified by FPLC using HisTrapHP 5 ml column (Cytiva Life Sciences) at a 5 ml/min flow rate and 10 mM-1M imidazole gradient in Buffer A (20 mM Tris pH 8.0, 300 mM NaCl, 10 mM imidazole, 5 mM β-mercaptoethanol). Fractions containing active protein by Malachite Green Phosphatase Release Assay (Echelon, see below) were pooled, concentrated and buffer exchanged to reduce imidazole concentration by centrifugation using Pierce Protein Concentrators 30KMWCO PES, (ThermoFisher Scientific). Protein was aliquoted and stored at −80° C. in a mixture of Buffer A (without β-ME) and 50% glycerol.
Malachite Green Phosphatase Release Assays: Malachite Green Phosphatase Release Assays (Echelon Biosciences) were performed with recombinant human truncated SHIP1 (tSHIP1) (Brooks, 2015) and SHIP2 (Echelon Biosciences). Briefly, serial dilutions of the compounds dissolved in DMSO were added to the recombinant enzymes diluted in reaction buffer Rx (50 mM Hepes pH 7.4, 150 mM NaCl, 1 mM MgCl2, 0.25 mM EDTA) in triplicate reactions in 96-well plates. Reactions were incubated for 2 min at room temperature. […] of 1 mM Phosphatidylinositol 3,4,5-trisphosphate diC8 (PI(3,4,5)P3diC8) (Echelon Biosciences) was added to each reaction to a final concentration of 100 μM in a final volume of […]. Following 20 min incubation at 37° C., 100 μL of Malachite Green Solution (Echelon Biosciences) was added to each well and plates were incubated at room temperature in the dark for 15 min. Plates were then read at 620 nm on a plate reader (Synergy 2, BioTek).

[3] = test system: IL-6 production in BV-2 cells; assay: ELISA quantitation of IL-6 production in BV-2 cells after stimulation with LPS; assay type: cell-based, murine; conditions: 1 h pretreatment with SHIP1 activator 10 μM, then LPS
Procedure: FIG. 3 presents an ELISA quantitation of IL-6 production in BV-2 cells after stimulation with LPS. BV-2 cells were plated and treated for 1 h with vehicle (Veh, 0.25% DMSO) or SHIP1 activator (10 μM in Veh) prior to addition of LPS (100 ng/ml). Unstimulated BV2 cells treated with Veh are shown as an additional control to assess LPS induction of IL-6. (A) Evaluation of 1, 26, 29 and 53. (B) In a separate experiment, 70, and 71 were evaluated under similar conditions. Bars indicate Mean G SEM; statistical tests: two-way ANOVA with Tukey correction, **** p<0.0001, ** p<0.01.
Given this experience, some of the new activators were evaluated in a cell-based setting. Using the immortalized BV-2 cell line, which is derived from murine microglia and retains many microglial morphological and functional characteristics of microglia, an assay for the anti-inflammatory effects of these activators was developed. This assay involved treatment of the cells with lipopolysaccharides (LPS) to induce IL-6 production which can then be quantified with an ELISA.
Cell culture: The BV2 cell line was obtained from the ATCC (American Type Culture Collection). The ATCC and performs genetic validation on deposited cell lines. For the inflammatory cytokines production studies, BV2 cells were cultured in DMEM/F12 (Corning) 10% HI FBS at 37° C. and 5% CO2 in a humidified incubator and split 1:6 every 3 days with Cellstripper™ (Corning). Cells were kept at 37° C. and 5% CO2 in a humidified incubator.
ELISA measurements: Parental (scrambled guide control) BV2 cells were seeded at 5×10^5/mL, […] in 48 well plate. Cell were treated with […] small molecule or vehicle control (0.5% DMSO) and incubated for 1 h before addition of stimuli. LPS (10 ng/ml, E. coli O111: B4, Sigma) was added to the cells and incubated for 6 h to detect IL-6 production. Supernatants were spun down at 400×g for 5 minutes to remove cell debris and froze at −20° C. for ELISAs. IL-6 levels were quantified from cellular supernatants with ELISA MAX™ Standard Set Mouse IL-6 kit (Biolegend), following manufacturer's recommendations. We detected absorbance at 450 nm and removed 570 nm background absorbance, with a plate reader (Synergy 2, BioTek). All experiments were repeated three times and each value was reported as mean±SEM from biological replicates in the same assay. All statistical analysis were performed using GraphPad Prism (version 9.2). Two-way ANOVA was used to analyze all data with two independent variables as time and treatment or concentration and treatment, data is reported as Mean+/−SEM.

SMILES | Solubility [1] | Phosphatase activity in the Malachite Green Assay, analog concentration 125 μM [2] | Phosphatase activity in the Malachite Green Assay, analog concentration 250 μM [2] | Phosphatase activity in the Malachite Green Assay, analog concentration 500 μM [2] | SHIP1 activator activity in the malachite green assay [2] | Malachite (SHIP1), 125 μM [2] | Malachite (SHIP1), 250 μM [2] | Malachite (SHIP1), 500 μM [2] | IL-6 production induced by LPS [3]
Cc1sc(S(=O)(=O)N2CCS(=O)(=O)CC2)cc1NC(=O)CNS(=O)(=O)c1ccc(F)cc1 [Compound 23] | insoluble in any solvent |  |  |  |  |  |  |  | 
Cc1sc(S(=O)(=O)N2CCCCC2)cc1NC(=O)CNS(=O)(=O)c1ccc(F)cc1 [Compound K368, 2-(4-Fluorobenzenesulfonamido)-N-[2-methyl-5-(piperidine-1-sulfonyl)thiophen-3-yl]acetamide] |  | 116% | 119% | 128% | nearly as active as K306 |  |  |  | especially significant reductions of IL-6 production
CCCCNS(=O)(=O)c1cc(NC(=O)CNS(=O)(=O)c2ccc(F)cc2)c(C)s1 [Compound K382, N-[5-(Butylsulfamoyl)-2-methylthiophen-3-yl]-2-(4-fluorobenzenesulfonamido) acetamide] |  | 124% | 124% | 122% |  |  |  |  | especially significant reductions of IL-6 production
Cc1sc(S(=O)(=O)N2CCSCC2)cc1NC(=O)CNS(=O)(=O)c1ccccc1C(F)(F)F [Compound K403, N-[2-methyl-5-(thiomorpholine-4-sulfonyl)thiophen-3-yl]-2-(2-trifluoromethylbenzenesulfonamido) acetamide] |  | 106% | 108% | 139% | good activator activity |  |  |  | significant activity
Cc1sc(S(=O)(=O)N2CCSCC2)cc1NC(=O)[C@@H]1CCCN1S(=O)(=O)c1ccc(F)cc1 [Compound K408] |  | 107% | 127% | 130% | significant activity at 250 μM |  |  |  | significant decrease in IL-6 formation
O=C(Nc1ccc(S(=O)(=O)N2CCCCC2)cc1)[C@@H]1CCCN1S(=O)(=O)c1ccccc1C(F)(F)F [Compound K420] |  |  |  |  |  | 99% | 112% | 138% | 
Cc1sc(S(=O)(=O)N2CCCCC2)cc1NC(=O)[C@@H]1CCCN1S(=O)(=O)c1ccccc1C(F)(F)F [Compound K421] |  |  |  |  |  | 96% | 122% | 158% | 
Cc1sc(S(=O)(=O)N2CCCCC2)cc1NC(=O)[C@@H]1CCCN1S(=O)(=O)c1ccc(C(F)(F)F)cc1 [Compound K422] |  |  |  |  |  | 96% | 103% | 126% | 

Second part, led by results:

Solubility [1] | Phosphatase activity in the Malachite Green Assay, analog concentration 125 μM [2] | Phosphatase activity in the Malachite Green Assay, analog concentration 250 μM [2] | Phosphatase activity in the Malachite Green Assay, analog concentration 500 μM [2] | SHIP1 activator activity in the malachite green assay [2] | Malachite (SHIP1), 125 μM [2] | Malachite (SHIP1), 250 μM [2] | Malachite (SHIP1), 500 μM [2] | SMILES | IL-6 production induced by LPS [3]
 |  |  |  |  | 79% | 84% | 91% | CCCCNS(=O)(=O)c1ccc(NC(=O)[C@@H]2CCCN2S(=O)(=O)c2ccccc2C(F)(F)F)cc1 [Compound K424] | 
 |  |  |  |  | 75% | 80% | 81% | CCCCNS(=O)(=O)c1ccc(NC(=O)[C@@H]2CCCN2S(=O)(=O)c2ccc(C(F)(F)F)cc2)cc1 [Compound K425] | 
 |  |  |  |  | 75% | 63% | 74% | O=C(CNS(=O)(=O)c1ccc(C(F)(F)F)cc1)Nc1ccc(S(=O)(=O)N2CCCCC2)cc1 [Compound K426] | 
 |  |  |  |  | 80% | 88% | 116% | O=C(CNS(=O)(=O)c1ccccc1C(F)(F)F)Nc1ccc(S(=O)(=O)N2CCCCC2)cc1 [Compound K427] | 
